Data on seven molecules can be found in ChEMBL document CHEMBL4028829, “New derivatives of ursolic acid through the biotransformation by Bacillus megaterium CGMCC 1.1741 as inhibitors on nitric oxide production” (Bioorg Med Chem Lett, 2017).

Series [1] has as its system RAW264.7. The series can be described thus: Inhibition of LPS-induced NO production in mouse RAW264.7 cells preincubated for 1 hr followed by LPS stimulation measured after 24 hrs by Griess assay. The series is classed as functional, cell-based.
The test system of series [2] is RAW264.7. The series is described as follows: Pro-inflammatory activity in mouse RAW264.7 cells assessed as LPS-induced NO production at 0.625 to 60 uM preincubated for 1 hr followed by LPS stimulation measured after 24 hrs by Griess assay. Particulars: raw264.7, 24 h; call rule not given here. The series is classed as ADME, cell-based.
[3] abbreviates: Mus musculus, RAW264.7, read-out: IC50.

`C[C@H]1[C@H](C)CC[C@]2(C(=O)O)CC[C@]3(C)C(=C[C@@H](O)[C@@H]4[C@@]5(C)[C@H](O)CC(=O)C(C)(C)[C@@H]5CC[C@]43C)[C@H]12`: the IC50 – broadly, the point on the concentration scale where inhibition reaches its midpoint – in the series with RAW264.7 [1] (setting [3]) is 1.24 µM.

Consider `C[C@H]1[C@H](C)CC[C@]2(C(=O)O)CC[C@]3(C)C(=CC[C@@H]4[C@@]5(C)CC[C@H](O)C(C)(C)[C@@H]5CC[C@]43C)[C@H]12` [URSOLIC ACID], for which, in the series on RAW264.7 [2], the Activity entry is “Toxic”. The concentration for half-maximal inhibition (IC50) result in the series on RAW264.7 [1] (raw264.7) is “Not Active”.

As to `C[C@H]1[C@H](C)CC[C@]2(C(=O)O[C@@H]3O[C@H](CO)[C@@H](O)[C@H](O)[C@H]3O)CC[C@]3(C)C(=C[C@@H](O)[C@@H]4[C@@]5(C)[C@H](O)CC(=O)C(C)(C)[C@@H]5CC[C@]43C)[C@H]12`, in the series with RAW264.7 [1] (setting [3]), the half-maximal inhibitory concentration (IC50) was above 60 µM.

With `C[C@H]1[C@H](C)CC[C@]2(C(=O)O)CC[C@]3(C)C(=C[C@@H](O)[C@@H]4[C@@]5(C)[C@H](O)C[C@H](O)C(C)(C)[C@@H]5CC[C@]43C)[C@H]12`, the half-maximal inhibitory concentration (IC50) with RAW264.7 [1] (setting [3]) stood at 40.1 µM.

In the case of `C[C@H]1[C@H](C)CC[C@@]23CC[C@]4(C)[C@@](C=C[C@@H]5[C@@]6(C)[C@H](O)CC(=O)C(C)(C)[C@@H]6CC[C@]54C)(OC2=O)[C@H]13`, the IC50 with RAW264.7 [1] (setting [3]) worked out at 1.71 µM.

As to `O=c1c(O)c(-c2ccc(O)c(O)c2)oc2cc(O)cc(O)c12` [QUERCETIN], the IC50 in the series with RAW264.7 [1] (setting [3]) was 4.41 µM.

In the case of `C[C@H]1[C@H](C)CC[C@]2(C(=O)O)CC[C@]3(C)C(=CC[C@@H]4[C@@]5(C)CCC(=O)C(C)(C)[C@@H]5CC[C@]43C)[C@H]12` [URSONIC ACID], the IC50 in the series with RAW264.7 [1] (setting [3]) was 4.94 µM.
